These results are taken from ChEMBL document CHEMBL1136391, “Synthesis and activity of a C-8 keto pleuromutilin derivative” (2003).

Format in all cases: functional
In one test the test system is Streptococcus pneumoniae. In words: Minimum inhibitory concentration against Streptococcus pneumoniae / Penicillin Resistant.
The subject of the next test is Moraxella catarrhalis. The test is described as follows: Minimum inhibitory concentration against Moraxella catarrhalis / Pen+.
In a further test the test system is Staphylococcus aureus. The test is described as follows: Minimum inhibitory concentration against Staphylococcus aureus / Homo MR.
A further test concerns Haemophilus influenzae. In words: Minimum inhibitory concentration against Haemophilus influenzae / Pen+.

≈ marks a conversion by molar mass, not a printed value.

As to `C=C[C@]1(C)C[C@@H](OC(=O)Nc2ccc(OC)cc2)[C@]2(C)C(C)CC[C@]3(CCC(=O)[C@H]32)[C@@H](C)[C@@H]1O` (stereo partly drawn), the MIC is 0.003 µg/mL (≈ 0.00639 µM) against Streptococcus pneumoniae, 0.125 µg/mL (≈ 0.266 µM) in the test on Moraxella catarrhalis, 0.003 µg/mL (≈ 0.00639 µM) with Staphylococcus aureus and 4 µg/mL (≈ 8.52 µM) in the test on Haemophilus influenzae.
Take `C=C[C@]1(C)C[C@@H](OC(=O)Nc2ccc(OC)cc2)[C@]2(C)C(C)CC(=O)[C@]3(CCC(=O)[C@H]32)[C@@H](C)[C@@H]1O` (stereo partly drawn): the MIC against Streptococcus pneumoniae came out at 32 µg/mL (≈ 66.2 µM); with Moraxella catarrhalis, 64 µg/mL (≈ 132 µM); in the test on Staphylococcus aureus, 32 µg/mL (≈ 66.2 µM); in the test with Haemophilus influenzae, 64 µg/mL (≈ 132 µM).
